{"source": "ChEMBL document CHEMBL4376820", "about": "“Homodimeric Tobramycin Adjuvant Repurposes Novobiocin as an Effective Antibacterial Agent against Gram-Negative Bacteria” (J Med Chem, 2019)", "key": {"[1]": {"assay": "Toxicity in Galleria mellonella larvae MDR Acinetobacter baumannii isolate assessed as larvae protection at 25 mg/kg in combination with novobiocin measured after 24 to 96 hrs relative to control", "type": "ADME, organism-based", "conditions": "in vivo"}, "[2]": {"tested_on": "Pseudomonas aeruginosa", "assay": "Potentiation of novobiocin-induced antibacterial activity against colistin and carbapenem-resistant Pseudomonas aeruginosa 101243 clinical isolate assessed as novobiocin MIC at <= 7.1 uM incubated for 18 hrs by CLSI protocol based assay (reference value: 128 ug/ml)", "type": "functional", "conditions": "Pseudomonas aeruginosa, 101243, 18 h"}, "[3]": {"tested_on": "Escherichia coli", "assay": "Potentiation of novobiocin-induced antibacterial activity against colistin-resistant Escherichia coli 94474 clinical isolate harboring mcr-1 gene assessed as novobiocin MIC at <= 7.1 uM incubated for 18 hrs by CLSI protocol based assay (reference value: 256 ug/ml)", "type": "functional", "conditions": "Escherichia coli, 94474, 18 h"}, "[4]": {"tested_on": "Pseudomonas aeruginosa", "assay": "Potentiation of novobiocin-induced antibacterial activity against carbapenem and colistin-resistant Pseudomonas aeruginosa 91433 clinical isolate assessed as novobiocin MIC at <= 7.1 uM incubated for 18 hrs by CLSI protocol based assay (reference value: 16 ug/ml)", "type": "functional", "conditions": "Pseudomonas aeruginosa, 91433, 18 h"}, "[5]": {"tested_on": "Acinetobacter baumannii", "assay": "Potentiation of novobiocin-induced antibacterial activity against novobiocin and colistin resistant Acinetobacter baumannii ATCC 17978 mutant generated from seven serial passages by checkerboard assay", "type": "functional, organism-based"}, "[6]": {"tested_on": "Pseudomonas aeruginosa", "assay": "Potentiation of novobiocin-induced antibacterial activity against carbapenem and colistin-resistant Pseudomonas aeruginosa 114228 clinical isolate assessed as novobiocin MIC at <= 7.1 uM incubated for 18 hrs by CLSI protocol based assay (reference value: 512 ug/ml)", "type": "functional", "conditions": "Pseudomonas aeruginosa, 114228, 18 h"}, "[7]": {"tested_on": "Klebsiella pneumoniae", "assay": "Potentiation of novobiocin-induced antibacterial activity against colistin-resistant Klebsiella pneumoniae 113254 clinical isolate assessed as novobiocin MIC at <= 7.1 uM incubated for 18 hrs by CLSI protocol based assay (reference value: 256 ug/ml)", "type": "functional", "conditions": "Klebsiella pneumoniae, 113254, 18 h"}, "[8]": {"tested_on": "Enterobacter cloacae", "assay": "Potentiation of novobiocin-induced antibacterial activity against colistin-resistant Enterobacter cloacae 118568 clinical solate assessed as novobiocin MIC at <= 7.1 uM incubated for 18 hrs by CLSI protocol based assay (reference value: 1024 ug/ml)", "type": "functional", "conditions": "Enterobacter cloacae, 118568, 18 h"}, "[9]": {"tested_on": "Escherichia coli", "assay": "Potentiation of novobiocin-induced antibacterial activity against colistin-resistant Escherichia coli 94393 clinical isolate harboring mcr-1 gene assessed as novobiocin MIC at <= 7.1 uM incubated for 18 hrs by CLSI protocol based assay (reference value: 128 ug/ml)", "type": "functional", "conditions": "Escherichia coli, 94393, 18 h"}, "[10]": {"tested_on": "Pseudomonas aeruginosa", "assay": "Potentiation of novobiocin-induced antibacterial activity against wild type Pseudomonas aeruginosa PAO1 assessed as novobiocin MIC at <= 7.1 uM incubated for 18 hrs by CLSI protocol based assay (reference value: 512 ug/ml)", "type": "functional", "conditions": "PAO1, 18 h"}, "[11]": {"tested_on": "Pseudomonas aeruginosa", "assay": "Induction of outer membrane permeabilization in Pseudomonas aeruginosa PAO1 assessed as increase in accumulation of NPN by measuring fluorescence intensity at 8 ug/ml measured immediately by NPN dye uptake assay", "type": "organism-based"}, "[12]": {"tested_on": "Acinetobacter baumannii", "assay": "Potentiation of novobiocin-induced antibacterial activity against colistin-resistant Acinetobacter baumannii 92247 clinical isolate assessed as novobiocin MIC at <= 7.1 uM incubated for 18 hrs by CLSI protocol based assay (reference value: 4 ug/ml)", "type": "functional", "conditions": "Acinetobacter baumannii, 92247, 18 h"}}, "note": "Active and inactive are the calls of the source. No cut-off for these calls is given here. Positions of bridges follow the written chain, without caps; N, C: chain ends. Non-standard residues stand in square brackets, D forms with d. Residues, ends and D or L forms follow the SMILES beside them. Dab = NCC[C@H](N)C(=O)O", "data": [{"smiles": "CC(C)C[C@@H]1NC(=O)[C@@H](Cc2ccccc2)NC(=O)[C@H](CCN)NC(=O)[C@@H](NC(=O)[C@H](CCN)NC(=O)[C@@H](N)[C@@H](C)O)CCNC(=O)[C@H]([C@@H](C)O)NC(=O)[C@H](CCN)NC(=O)[C@H](CCN)NC1=O", "note": "[POLYMYXIN B NONAPEPTIDE] (H-T[Dab][Dab][Dab][dF]L[Dab][Dab]T; lactam 3-C)", "values": [{"measurement": "Activity", "setting": "[1]", "result": 35, "unit": "%"}, {"measurement": "MIC", "setting": "[2]", "result": 8, "unit": "µg/mL"}, {"measurement": "MIC", "setting": "[3]", "result": 32, "unit": "µg/mL"}, {"measurement": "MIC", "setting": "[4]", "result": 4, "unit": "µg/mL"}, {"measurement": "Activity", "setting": "[5]", "result": "inactive"}, {"measurement": "MIC", "setting": "[6]", "result": 128, "unit": "µg/mL"}, {"measurement": "MIC", "setting": "[7]", "result": 64, "unit": "µg/mL"}, {"measurement": "MIC", "setting": "[8]", "result": 512, "unit": "µg/mL"}, {"measurement": "MIC", "setting": "[9]", "result": 4, "unit": "µg/mL"}, {"measurement": "MIC", "setting": "[10]", "result": 4, "unit": "µg/mL"}, {"measurement": "Activity", "setting": "[11]", "result": "Active"}, {"measurement": "MIC", "setting": "[12]", "result": 1, "unit": "µg/mL"}]}]}
